Measured values taken from US8071777B2, “Compounds derived from artesunate, preparation process, pharmaceutical composition and use of the respective medicine” (Fundação Oswaldo Cruz - FIOCRUZ, priority 2004, dated 2011).
≈ marks a conversion by molar mass, not a printed value. Where “and” joins values, the source holds several entries; their conditions need not be identical. Identical values can stand only once. Like-named read-outs stand apart in the source and are kept apart here.

Legend:
Plasmodium berghei = assay: Antimalarial activity in vivo in mice infected with Plasmodium berghei NK 65, oral treatment for 4 days; conditions: for Average parasitaemia (%) ± SD on day 5 / Average parasitaemia (%) ± SD on day 7: 12 mg/kg via oral for 4 days in sequence, mice infected by Plasmodium berghei; for Average parasitaemia (%) ± SD on day 5: day 5 of infection; for Average parasitaemia (%) ± SD on day 7: day 7 of infection; for Cumulative mortality on day 10 of infection / Cumulative mortality on day 19 of infection / Cumulative mortality on day 23 of infection / Cumulative mortality on day 35 of infection / Cumulative mortality on day 48 of infection: 5 mice in each group; for % Inhibition of parasitaemia on day 5: day 5, in relation to the group control not treated; for % Inhibition of parasitaemia on day 7: day 7, in relation to the group control not treated; for Suppression of the acute parasitaemia of treated animals: evaluations on the 5th and 7th day after the infection; for Parasitaemia at late follow-up: negative or recrudescence: new blood samples days 30 to 48
Procedure: To evaluate the antimalarial activity the following tests were carried out in different experiments in vivo using groups of Swiss female albino mice, weighing between 18 and 22 g. These mice were innoculated with 100,000 red cells infected with strain NK 65 of Plasmodium berghei (cause of malaria in rodents) according to the scheme previously proposed (Peters et al., Annals of Tropical Medicine and Parasitology, 1993, 87, 547). After inoculating the parasite via intraperitoneal, the animals were divided at random into groups of five. The treatment of the mice were initiated the day after the inoculation, for 4 days in sequence, applying samples “A”, “B” e “C” administered via oral. The different groups of mice, represented by groups treated and not treated (group control) were kept in the same conditions, in polyacetylene cages, water and ration was offered ad libitum. A group was treated with chloroquine, an antimalarial of reference. The development of the infection was verified in all groups through blood samples collected for parasitaemia on the 5th and 7th day after the infection, and the parasitaemia was measured based on double blind tests, in codified slides, in order to minimize occasional bias.
(§1) Not only in vivo but also in vitro, the activity of drugs was evaluated in relation to the group control without any drugs.

P. falciparum (W2) = assay: Antimalarial activity in vitro against P. falciparum cultivated in red cells, 72 hours; format: cell-based; conditions: for IC50: Plasmodium falciparum
Procedure: The tests in vitro to evaluate the antimalarial activity were carried out with P. falciparum cultivated in red cells in 10% of human serum, in slabs of 96 wells, using Rieckman et al's traditional method, modified by Carvalho et al. Braz J. Med. Biol. Research, 1991. The parasites were incubated for 72 hours in culture medium having samples “A”, “B” and “C” in different dilutions in ideal atmospherical conditions at 37° C.; drugs and the culture medium was changed every 24 hours. After this period, blood samples were collected for evaluation of the activity of each compound. As to control wells with complete culture medium were maintained, but with no addition of drugs, and wells in which chloroquine was present in different tested concentrations in triplicate.
as §1

[1] = 12 mg/kg via oral for 4 days, day 48
[2] = P. falciparum (W2) in vitro, Experiment 1, approximated
[3] = P. falciparum (W2) in vitro, Experiment 2, approximated
[4] = W2, read-out: Inhibiting concentration (IC) 50%, Experiment 1
[5] = W2, read-out: Inhibiting concentration (IC) 50%, Experiment 2

`CC1CCC2C(C)C(OC(=O)CCC(=O)O)OC3OC4(C)CCC1C32OO4.OC(c1cc(C(F)(F)F)nc2c(C(F)(F)F)cccc12)C1CCCCN1` (stereo not drawn) [A, salt of artesunate and mefloquine] was tested, and the “Cure of malaria in treated animals” value (Plasmodium berghei; 12 mg/kg via oral for 4 days) was “the cure of malaria was observed”, the “Average parasitaemia (%) ± SD on day 5” value (Plasmodium berghei) was 0% and the “Average parasitaemia (%) ± SD on day 7” value (Plasmodium berghei) was 0%. For the same compound, the “Cumulative mortality on day 10 of infection” value (Plasmodium berghei; 12 mg/kg via oral for 4 days) was 0, the “Cumulative mortality on day 19 of infection” value (Plasmodium berghei; 12 mg/kg via oral for 4 days) was 0 and the “Cumulative mortality on day 23 of infection” value (Plasmodium berghei; 12 mg/kg via oral for 4 days) was 0. For the same compound, the “Cumulative mortality on day 35 of infection” value (Plasmodium berghei; 12 mg/kg via oral for 4 days) was 0, the “Cumulative mortality on day 48 of infection” value (Plasmodium berghei; [1]) was 0 and the “% Inhibition of parasitaemia on day 5” value (Plasmodium berghei; 12 mg/kg via oral for 4 days) was “(100%)”. The “% Inhibition of parasitaemia on day 7” value (Plasmodium berghei; 12 mg/kg via oral for 4 days) was “(100%)”, the “Suppression of the acute parasitaemia of treated animals” value (shortened to “Suppression”) (Plasmodium berghei; 12 mg/kg via oral) was 100% and the “Parasitaemia at late follow-up: negative or recrudescence” value (shortened to “Parasitaemia at late follow-up”) (Plasmodium berghei; 12 mg/kg via oral) was “remained negative”. The “Inhibiting concentration (IC) 40%, Experiment 1” value (P. falciparum (W2); [2]) was 0.83 ng/mL, the “Inhibiting concentration (IC) 50%, Experiment 1” value (P. falciparum (W2); [2]) was 1.03 ng/mL and the “Inhibiting concentration (IC) 80%, Experiment 1” value (P. falciparum (W2); [2]) was 1.85 ng/mL. For the same compound, the “Inhibiting concentration (IC) 95%-100%, Experiment 1” value (P. falciparum (W2); [2]) was 4.07 ng/mL, the “Inhibiting concentration (IC) 40%, Experiment 2” value (P. falciparum (W2); [3]) was 0.46 ng/mL and the “Inhibiting concentration (IC) 50%, Experiment 2” value (P. falciparum (W2); [3]) was 0.8 ng/mL. The “Inhibiting concentration (IC) 80%, Experiment 2” value (P. falciparum (W2); [3]) was 1.5 ng/mL and the “Inhibiting concentration (IC) 95%-100%, Experiment 2” value (P. falciparum (W2); [3]) was “≧5 ng/ml”.
With `C[C@H]1[C@H](OC(=O)CCC(=O)O)O[C@@H]2O[C@@]3(C)CC[C@H]4[C@H](C)CC[C@@H]1[C@@]24OO3` [B, artesunate] the “Average parasitaemia (%) ± SD on day 5” value (Plasmodium berghei) was 0%, the “Average parasitaemia (%) ± SD on day 7” value (Plasmodium berghei) was 0% and the “Cumulative mortality on day 10 of infection” value (Plasmodium berghei; 12 mg/kg via oral for 4 days) was 0. The “Cumulative mortality on day 19 of infection” value (Plasmodium berghei; 12 mg/kg via oral for 4 days) was 0, the “Cumulative mortality on day 23 of infection” value (Plasmodium berghei; 12 mg/kg via oral for 4 days) was 1 and the “Cumulative mortality on day 35 of infection” value (Plasmodium berghei; 12 mg/kg via oral for 4 days) was 2. The “Cumulative mortality on day 48 of infection” value (Plasmodium berghei; [1]) was 3, the “% Inhibition of parasitaemia on day 5” value (Plasmodium berghei; 12 mg/kg via oral for 4 days) was “(100%)” and the “% Inhibition of parasitaemia on day 7” value (Plasmodium berghei; 12 mg/kg via oral for 4 days) was “(100%)”. For the same compound, the “Suppression” value (Plasmodium berghei; 12 mg/kg via oral) was 100%, the “Mortality during follow-up of treatment” value (Plasmodium berghei; 12 mg/kg via oral, follow-up of about 30 days) was “mortality occurred” and the “Parasitaemia at late follow-up” value (Plasmodium berghei; 12 mg/kg via oral) was “showed recrudescency of the parasitaemia”. For the same compound, the “% parasitaemia, Average ± Sd, day 30” value (Plasmodium berghei; 12 mg/kg, group average, day 30) was 16.6 ± 20.4%, the “% parasitaemia, Average ± Sd, day 33” value (Plasmodium berghei; 12 mg/kg, group average, day 33) was 23.3 ± 24.3% and the “% parasitaemia, Average ± Sd, day 36” value (Plasmodium berghei; 12 mg/kg, group average, day 36) was 33.5 ± 27.4%. For the same compound, the “% parasitaemia, Average ± Sd, day 48” value (Plasmodium berghei; 12 mg/kg, group average, day 48) was 30 ± 21.2%, the “% Individual parasitaemia on day 30 (recrudescence)” value (Plasmodium berghei; 12 mg/kg, individual animals infected by P. berghei, day 30, † = Animal death) was 0.6% and 24% and 0% and 42% and the “% Individual parasitaemia on day 33 (recrudescence)” value (Plasmodium berghei; 12 mg/kg, individual animals infected by P. berghei, day 33, † = Animal death) was 5% and 40% and 0% and 48%. The “% Individual parasitaemia on day 36 (recrudescence)” value (Plasmodium berghei; 12 mg/kg, individual animals infected by P. berghei, day 36, † = Animal death) was 14% and 53% and 0%, the “% Individual parasitaemia on day 48 (recrudescence)” value (Plasmodium berghei; 12 mg/kg, individual animals infected by P. berghei, day 48, † = Animal death) was 30% and 0% and the “Inhibiting concentration (IC) 40%, Experiment 1” value (P. falciparum (W2); [2]) was 0.37 ng/mL. The “Inhibiting concentration (IC) 80%, Experiment 1” value (P. falciparum (W2); [2]) was 0.99 ng/mL, the “Inhibiting concentration (IC) 95%-100%, Experiment 1” value (P. falciparum (W2); [2]) was 1.54 ng/mL and the “Inhibiting concentration (IC) 40%, Experiment 2” value (P. falciparum (W2); [3]) was 0.33 ng/mL. For the same compound, the “Inhibiting concentration (IC) 80%, Experiment 2” value (P. falciparum (W2); [3]) was 1.3 ng/mL, the “Inhibiting concentration (IC) 95%-100%, Experiment 2” value (P. falciparum (W2); [3]) was “≧5 ng/ml” and the IC50 (P. falciparum (W2); [4]) was 0.46 ng/mL (≈ 1.2 nM). For the same compound, the IC50 (P. falciparum (W2); [5]) was 0.43 ng/mL (≈ 1.12 nM).
For `OC(c1cc(C(F)(F)F)nc2c(C(F)(F)F)cccc12)C1CCCCN1` (stereo not drawn) [C, mefloquine], the “Average parasitaemia (%) ± SD on day 5” value (Plasmodium berghei) was 0%, the “Average parasitaemia (%) ± SD on day 7” value (Plasmodium berghei) was 0% and the “Cumulative mortality on day 10 of infection” value (Plasmodium berghei; 12 mg/kg via oral for 4 days) was 0. The “Cumulative mortality on day 19 of infection” value (Plasmodium berghei; 12 mg/kg via oral for 4 days) was 0, the “Cumulative mortality on day 23 of infection” value (Plasmodium berghei; 12 mg/kg via oral for 4 days) was 0 and the “Cumulative mortality on day 35 of infection” value (Plasmodium berghei; 12 mg/kg via oral for 4 days) was 0. The “Cumulative mortality on day 48 of infection” value (Plasmodium berghei; [1]) was 0, the “% Inhibition of parasitaemia on day 5” value (Plasmodium berghei; 12 mg/kg via oral for 4 days) was “(100%)” and the “% Inhibition of parasitaemia on day 7” value (Plasmodium berghei; 12 mg/kg via oral for 4 days) was “(100%)”. The “Suppression” value (Plasmodium berghei; 12 mg/kg via oral) was 100%, the “Parasitaemia at late follow-up” value (Plasmodium berghei; 12 mg/kg via oral) was “remained negative” and the “Inhibiting concentration (IC) 40%, Experiment 1” value (P. falciparum (W2); [2]) was 0.93 ng/mL. The “Inhibiting concentration (IC) 80%, Experiment 1” value (P. falciparum (W2); [2]) was 12.9 ng/mL, the “Inhibiting concentration (IC) 95%-100%, Experiment 1” value (P. falciparum (W2); [2]) was “≧50 ng/ml” and the “Inhibiting concentration (IC) 40%, Experiment 2” value (P. falciparum (W2); [3]) was 2.8 ng/mL. For the same compound, the “Inhibiting concentration (IC) 80%, Experiment 2” value (P. falciparum (W2); [3]) was “≧5 ng/ml”, the “Inhibiting concentration (IC) 95%-100%, Experiment 2” value (P. falciparum (W2); [3]) was “≧5 ng/ml” and the IC50 (P. falciparum (W2); P. falciparum (W2) in vitro, Experiment 1, approximated, read-out: Inhibiting concentration (IC) 50%, Experiment 1) was 1.24 ng/mL (≈ 3.28 nM). It also gave an IC50 (P. falciparum (W2); P. falciparum (W2) in vitro, Experiment 2, approximated, read-out: Inhibiting concentration (IC) 50%, Experiment 2) of 3.4 ng/mL (≈ 8.99 nM).
With `CCN(CC)CCCC(C)Nc1ccnc2cc(Cl)ccc12` (stereo not drawn) [QC, chloroquine] the “Inhibiting concentration (IC) 40%, Experiment 1” value (P. falciparum (W2); [2]) was 41.1 ng/mL, the “Inhibiting concentration (IC) 80%, Experiment 1” value (P. falciparum (W2); [2]) was 82.3 ng/mL and the “Inhibiting concentration (IC) 95%-100%, Experiment 1” value (P. falciparum (W2); [2]) was 277.7 ng/mL. The “Inhibiting concentration (IC) 40%, Experiment 2” value (P. falciparum (W2); [3]) was 48.2 ng/mL, the “Inhibiting concentration (IC) 80%, Experiment 2” value (P. falciparum (W2); [3]) was 133.4 ng/mL and the “Inhibiting concentration (IC) 95%-100%, Experiment 2” value (P. falciparum (W2); [3]) was “≧200 ng/ml”. The IC50 (P. falciparum (W2); [4]) was 51.3 ng/mL (≈ 160 nM) and the IC50 (P. falciparum (W2); [5]) was 55.5 ng/mL (≈ 174 nM).
